Molecules are shown by their SMILES.

The values below come from patent US10940139B2, “Compounds that interact with the Ras superfamily for the treatment of cancers, inflammatory diseases, rasopathies, and fibrotic disease” (Shy Therapeutics LLC, priority 2017, dated 2021).

One assay relates to MIA-PACA2 pancreatic cancer cell lines. As to the kind of experiment: Cell proliferation assay (CellTiter 96 AQueous One). The class given is cell-based. Conditions: Homo sapiens, MIA PaCa-2; MIA-PACA2, same assay as the % inhibition (standard conditions). On the procedure: Cell lines: Tumor-derived pancreatic cancer cell lines MIA-PACA2 were purchased from ATCC and grown in complete DMEM-High Glucose medium supplemented with penicillin (100 U/mL), streptomycin (100 μg/mL), and 10% heat-inactivated FBS at 37° C. in a humidified incubator with 5% CO2.
Method: Cells are plated at 1000 cells/well density in 96-wells plate, starved ON, and the next day tested small molecules are added to the cells in the final concentration of 30 μM with 0.3% DMSO 3 hours prior to 10% FBS addition. After serum addition cells are incubated for 6 days at 37° C. in a humidified incubator with 5% CO2. For IC50 value determination, serial dilutions of compounds were added to cells under the same conditions.
Assay: At the end of the incubation period, cell cultures are tested using the CellTiter 96® AQueous One Solution Cell Proliferation Assay kit (Promega Corporation, Madison, Wis.) according to the manufacturer specifications. Briefly, assay is performed by adding 20 μl of the CellTiter 96 Aqueous One Solution Reagent directly to culture wells, followed by for 1-4 hours incubation at 37° C. in a humidified incubator with 5% CO2. At the end of incubation time, absorbance at 492 nm is recorded with the 96-well plate reader Eppendorf AF2200, and degree of small molecule-dependent proliferation inhibition is calculated from raw data assuming No Serum cells value as 100%.
The term IC50 denotes the midpoint of a concentration-inhibition curve. With `Oc1nc(-c2ccccn2)nc2c(-c3ccccc3Cl)csc12` [drawing 1582], the IC50 lay in the range of 100 to 500 nM. Take `N#Cc1ncn(-c2nc(-c3ccccn3)nc3sc(-c4ccccc4)cc23)n1` [drawing 1595]: the half-inhibitory concentration (IC50) lay within 501 to 1000 nM.

Still in this assay, the particulars now being: Homo sapiens, MIA PaCa-2; at 30 μM, MIA-PACA2.
The inhibition is the share of the control response that was lost under treatment. `Cc1nc2nc(C(F)(F)F)nn2c(C)c1CC(=O)Nc1nnc(-c2ccccn2)[nH]1` [drawing 1445] gave an inhibition at 30 µM of 51 to 75%. `COc1cccc(COCC(=O)Nc2nnc(-c3ccccn3)[nH]2)c1` [drawing 1446] yielded an inhibition at 30 µM of 51 to 75%.

On to `O=C(c1csc2c(O)nc(-c3ccccn3)nc12)N1CCNC(Cc2ccc(F)cc2)C1` (stereo not drawn) [drawing 1707], for which the inhibition at 30 µM is 51 to 75%. Still for that read-out and setting: the figure for `O=C(c1csc2c(O)nc(-c3ccccn3)nc12)N1CCN(Cc2ccccc2)CC1` [drawing 1655] is 76 to 100%; for `Oc1nc(-c2ccccn2)nc2c(-c3ccccc3Cl)csc12` [drawing 1582] it is 76 to 100%; for `O=C(Nc1nc(-c2ccccn2)cs1)C1CC(=O)N(c2ccc3c(c2)OCCO3)C1` (stereo not drawn) [drawing 1482] it is 76 to 100%. Same read-out and setting: the figure for `O=C(c1csc2c(O)nc(-c3ccccn3)nc12)N1CCNC(c2ccc(F)cc2)C1` (stereo not drawn) [drawing 1700] is 76 to 100%. On the same count and under the same terms, then `O=C(CNc1nc(-c2ccccn2)nc2scc(-c3ccccc3)c12)NC1CC1` [drawing 1612], with 76 to 100%. For the compound `Cc1ccc(CC(=O)Nc2nnc(-c3ccccn3)[nH]2)s1` [drawing 1433], the inhibition at 30 µM was in the range of 76 to 100%. Same read-out and setting: the figure for `O=C(c1csc2c(O)nc(-c3ccccn3)nc12)N1CCNC(c2cn[nH]c2)C1` (stereo not drawn) [drawing 1734] is 1 to 25%; for `O=C(c1csc2c(O)nc(-c3ccccn3)nc12)N1CCOC(c2ccccc2)C1` (stereo not drawn) [drawing 1659] it is 76 to 100%; for `COCCN(CCOC)c1nc(-c2ccccn2)nc2scc(C(=O)NCCc3ccc(OC)nc3)c12` [drawing 1685] it is 76 to 100%. The same measure, in the same setting: then `CC1CCN(C(=O)c2csc3c(O)nc(-c4ccccn4)nc23)CC1` [drawing 1563], with 76 to 100%; and `COc1cccc(-c2csc3c(O)nc(-c4ccccn4)nc23)c1` [drawing 1748], with 76 to 100%. On the same count and under the same terms, the figure for `COc1cc(CCN(C)C(=O)c2csc3nc(-c4ccccn4)nc(N4CCOCC4)c23)ccn1` [drawing 1674] is 76 to 100%; for `OCCOCCNc1nc(-c2ccccn2)nc2scc(-c3ccccc3)c12` [drawing 1515] it is 76 to 100%; for `CC1(N)CCN(C(=O)c2csc3c(O)nc(-c4ccccn4)nc23)CC1` [drawing 1573] it is 1 to 25%.

`COc1ccc(CC(=O)Nc2nnc(-c3ccccn3)[nH]2)cc1` [drawing 1408] gave an inhibition at 30 µM of 76 to 100%. With `CN(CCc1cccc(C#N)c1)C(=O)c1csc2nc(-c3ccccn3)nc(N3CCOCC3)c12` [drawing 1681], the inhibition at 30 µM lay in the range of 76 to 100%. Same read-out and setting: the figure for `O=C(COc1ccc2c(c1)CCC2)Nc1nnc(-c2ccccn2)[nH]1` [drawing 1438] is 1 to 25%; for `O=C(c1csc2c(O)nc(-c3ccccn3)nc12)N1CCNC(c2ccccc2F)C1` (stereo not drawn) [drawing 1669] it is 76 to 100%; for `COc1cnc(C2CCCN2)nc1O` (stereo not drawn) [drawing 1792] it is 51 to 75%.

`NC(=O)C1CCCN(c2nc(-c3ccccn3)nc3scc(-c4ccccc4)c23)C1` (stereo not drawn) [drawing 1624] had an inhibition at 30 µM of 76 to 100%. The same measure, in the same setting: then `O=C(Nc1nc(-c2ccccn2)cs1)c1ccc2nccnc2c1` [drawing 1477], with 76 to 100%; and `Cc1cc(OC(F)F)ccc1-c1csc2c(O)nc(-c3ccccn3)nc12` [drawing 1754], with 76 to 100%. The same measure, in the same setting: then `c1ccc(-c2csc3nc(-c4ccccn4)nc(N4CCN(CC5CCCO5)CC4)c23)cc1` (stereo not drawn) [drawing 1603], with 76 to 100%; and `Oc1nc(-c2ccccn2)nc2c(-c3ccc4c(c3)CCCO4)csc12` [drawing 1778], with 76 to 100%; and `O=C(Nc1nnc(-c2ccccn2)[nH]1)C1CCCC(C(F)(F)F)C1` (stereo not drawn) [drawing 1430], with 76 to 100%.

For `O=C(c1csc2c(O)nc(-c3ccccn3)nc12)N1CCN(c2ccc(F)cc2)CC1` [drawing 1648], the inhibition at 30 µM is 76 to 100%. `N#Cc1ncn(-c2nc(-c3ccccn3)nc3sc(-c4ccccc4)cc23)n1` [drawing 1595] returned an inhibition at 30 µM of 76 to 100%. `O=C(c1csc2c(O)nc(-c3ccccn3)nc12)N1CCNC(c2ccccc2Cl)C1` (stereo not drawn) [drawing 1699] yielded an inhibition at 30 µM of 76 to 100%.

As for `O=c1nc(-c2ccccn2)[nH]c2c1sc1ccccc12` [drawing 1499], the inhibition at 30 µM fell in the range of 76 to 100%.

In turn, `Oc1nc(-c2ccccn2)nc2c(-c3ccc(OC(F)F)cc3F)csc12` [drawing 1752] returned an inhibition at 30 µM of 76 to 100%.

Take `Oc1nc(-c2ccccn2)nc2c(-c3cc(F)ccc3OC(F)F)csc12` [drawing 1736]: the inhibition at 30 µM lay in the range of 76 to 100%. On the same count and under the same terms, the figure for `COc1ccc2c(ccn2CC(=O)Nc2nnc(-c3ccccn3)[nH]2)c1` [drawing 1399] is 76 to 100%; for `O=C(Cc1c[nH]c2ccccc12)Nc1nnc(-c2ccccn2)[nH]1` [drawing 1387] it is 1 to 25%. Same read-out and setting: the figure for `Cc1cc2c(=O)nc(-c3cc(OCC(F)F)ccn3)[nH]c2s1` [drawing 1500] is 76 to 100%. Take `COC(=O)c1cc2nc(-c3ccccn3)nc(O)c2s1` [drawing 1783]: the inhibition at 30 µM lay in the range of 76 to 100%. In the case of `Oc1nc(-c2ccccn2)nc2c(-c3ccc(OC4CCOC4)cc3)csc12` (stereo not drawn) [drawing 1738], the inhibition at 30 µM was in the range of 76 to 100%. As for `O=C(c1csc2c(O)nc(-c3ccccn3)nc12)N1CCOC(Cc2ccccc2)C1` (stereo not drawn) [drawing 1664], the inhibition at 30 µM is 76 to 100%. For `Cc1oc(-c2ccccc2)nc1C(=O)Nc1nnc(-c2ccccn2)[nH]1` [drawing 1393], the inhibition at 30 µM fell in the range of 76 to 100%.

Compound `Nc1nc(-c2ccccn2)nc2scc(C(=O)O)c12` [drawing 1782] registered an inhibition at 30 µM of 1 to 25%. Still for that read-out and setting: then `COc1ccc(N2CCN(C(=O)c3csc4c(O)nc(-c5ccccn5)nc34)CC2)cc1O` [drawing 1695], with 76 to 100%. `Cc1cc2nc(-c3ccccn3)nc(N)c2s1` [drawing 1712] showed an inhibition at 30 µM of 76 to 100%.

As for `COc1ccccc1C1CC1C(=O)Nc1nnc(-c2ccccn2)[nH]1` (stereo not drawn) [drawing 1447], the inhibition at 30 µM was in the range of 25 to 50%.

Regarding `O=C(CN1CCN(c2nc(-c3ccccn3)nc3scc(-c4ccccc4)c23)CC1)N1CCCCC1` [drawing 1611], the inhibition at 30 µM lay within 76 to 100%.

Take `Cc1ccccc1N1CCN(C(=O)c2csc3c(O)nc(-c4ccccn4)nc23)CC1` [drawing 1633]: the inhibition at 30 µM lay within 76 to 100%. Still for that read-out and setting: then `COc1ccc2c(c1)CCC2C(=O)Nc1ccnc(-c2ccccn2)n1` (stereo not drawn) [drawing 1688], with 76 to 100%. Turning to `O=C(c1cocn1)N1CCCc2c(O)nc(-c3ccccn3)nc21` [drawing 1551], the inhibition at 30 µM is 1 to 25%. On the same count and under the same terms, the figure for `Cc1sc2nc(N)nc(O)c2c1C` [drawing 1630] is 1 to 25%; for `O=C(Nc1nnc(-c2ccccn2)[nH]1)c1ccc2ccccc2n1` [drawing 1401] it is 25 to 50%; for `O=C(Nc1nc(-c2ccccn2)cs1)c1ccc(F)cc1` [drawing 1486] it is 76 to 100%. On the same count and under the same terms, then `CC(C)NC(=O)Nc1cccc(C(=O)Nc2nnc(-c3ccccn3)[nH]2)c1` [drawing 1384], with 25 to 50%; and `Cc1ccc(CC(=O)Nc2nnc(-c3ccccn3)[nH]2)cc1` [drawing 1402], with 25 to 50%.

In turn, `O=C(NCCc1ccncc1)c1csc2nc(-c3ccccn3)nc(N3CCOCC3)c12` [drawing 1672] gave an inhibition at 30 µM of 76 to 100%. On the same count and under the same terms, then `Oc1nc(-c2ccccn2)nc2c(-c3ccc(OC4CCCCC4)cc3)csc12` [drawing 1763], with 76 to 100%.

A further assay deals with TNFα production in RAW 264.7 macrophage cell line. Kind of assay: Mouse TNF alpha quantification assay (LPS-stimulated macrophages, ELISA). The class given is cell-based. Particulars: RAW264.7, RAW 264.7 murine leukemia virus transformed macrophage cell lines, LPS stimulation, read-out: TNF-α % Inhibition at 30 μM. On the technique in general: ELISA stands for enzyme-linked immunosorbent assay.
Regarding `O=C(CN1CCN(c2nc(-c3ccccn3)nc3scc(-c4ccccc4)c23)CC1)N1CCCCC1` [drawing 2148], the inhibition at 30 µM lay within 1 to 25%.

Regarding `OC1CCN(c2nc(-c3ccccn3)nc3scc(-c4ccccc4)c23)CC1` [drawing 2156], the inhibition at 30 µM lay within 1 to 25%. Same read-out and setting: then `COC(=O)c1cncc(C(=O)Nc2nnc(-c3ccccn3)[nH]2)c1` [drawing 1981], with 1 to 25%. Same read-out and setting: then `Oc1nc(-c2ccccn2)nc2c(-c3ccc(Cl)c(Cl)c3)csc12` [drawing 2301], with 0%; and `Cc1c(C(=O)Nc2nnc(-c3ccccn3)[nH]2)oc2ccccc12` [drawing 1936], with 1 to 25%. Same read-out and setting: the figure for `CCN(CC)C(=O)c1sc2[nH]c(-c3ccccn3)nc(=O)c2c1C` [drawing 2029] is 1 to 25%; for `COc1cc(C)c(-c2csc3c(O)nc(-c4ccccn4)nc23)cc1C` [drawing 2261] it is 0%.

The next assay has as its system IL6 production in RAW 264.7 macrophage cell line. Kind of assay: Mouse IL6 quantification assay (LPS-stimulated macrophages, ELISA). The class given is cell-based. Particulars: RAW264.7, RAW 264.7 murine leukemia virus transformed macrophage cell lines, LPS stimulation, read-out: IL-6 % Inhibition at 30 μM.
With `O=C(CN1CCN(c2nc(-c3ccccn3)nc3scc(-c4ccccc4)c23)CC1)N1CCCCC1` [drawing 2148], the inhibition at 30 µM lay within 26 to 50%. On the same count and under the same terms, then `OC1CCN(c2nc(-c3ccccn3)nc3scc(-c4ccccc4)c23)CC1` [drawing 2156], with 26 to 50%; and `COC(=O)c1cncc(C(=O)Nc2nnc(-c3ccccn3)[nH]2)c1` [drawing 1981], with 1 to 25%. Still for that read-out and setting: then `Oc1nc(-c2ccccn2)nc2c(-c3ccc(Cl)c(Cl)c3)csc12` [drawing 2301], with 26 to 50%; and `Cc1c(C(=O)Nc2nnc(-c3ccccn3)[nH]2)oc2ccccc12` [drawing 1936], with 0%. The same measure, in the same setting: then `CCN(CC)C(=O)c1sc2[nH]c(-c3ccccn3)nc(=O)c2c1C` [drawing 2029], with 1 to 25%. Take `COc1cc(C)c(-c2csc3c(O)nc(-c4ccccn4)nc23)cc1C` [drawing 2261]: the inhibition at 30 µM lay within 51 to 75%.
